System: 857933-349-R-J2-PDC complex spheroid viability
Test: Anticancer human tumor 857933-349-R-J2-PDC patient-derived colon adenocarcinoma cell line growth inhibition [POLQ]
Settings: for IC50: curve of first compound; for viability, T/C: stronger effect = lower value
Summary of the method: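 Complex spheroid viability model combining PDC tumour cells with endothelial (HUVEC) and MSC stromal cells. Novobiocin, ART-558 or RP6685 were tested singly and in combination with standard and investigational anticancer drugs. Each was titrated in half-log steps from near clinical Cmax, or from 10 microM where Cmax was unknown.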

[1] = second compound 0.0316 µM, first compound 0.0316 µM
[2] = second compound 0.0316 µM, first compound 0.1 µM
[3] = second compound 0.0316 µM, first compound 0.316 µM
[4] = second compound 0.0316 µM, first compound 1 µM
[5] = second compound 0.0316 µM, first compound 3.16 µM
[6] = second compound 0.0316 µM, first compound 10 µM
[7] = second compound 0.1 µM, first compound 0.0316 µM
[8] = second compound 0.1 µM, first compound 0.1 µM
[9] = second compound 0.1 µM, first compound 0.316 µM
[10] = second compound 0.1 µM, first compound 1 µM
[11] = second compound 0.1 µM, first compound 3.16 µM
[12] = second compound 0.1 µM, first compound 10 µM
[13] = second compound 0.316 µM, first compound 0.0316 µM
[14] = second compound 0.316 µM, first compound 0.1 µM
[15] = second compound 0.316 µM, first compound 0.316 µM
[16] = second compound 0.316 µM, first compound 1 µM
[17] = second compound 0.316 µM, first compound 3.16 µM
[18] = second compound 0.316 µM, first compound 10 µM
[19] = second compound 1 µM, first compound 0.0316 µM
[20] = second compound 1 µM, first compound 0.1 µM
[21] = second compound 1 µM, first compound 0.316 µM
[22] = second compound 1 µM, first compound 1 µM
[23] = second compound 1 µM, first compound 3.16 µM
[24] = second compound 1 µM, first compound 10 µM
[25] = second compound 3.16 µM, first compound 0.0316 µM
[26] = second compound 3.16 µM, first compound 0.1 µM
[27] = second compound 3.16 µM, first compound 0.316 µM
[28] = second compound 3.16 µM, first compound 1 µM
[29] = second compound 3.16 µM, first compound 3.16 µM
[30] = second compound 3.16 µM, first compound 10 µM
[31] = second compound 10 µM, first compound 0.0316 µM
[32] = second compound 10 µM, first compound 0.1 µM
[33] = second compound 10 µM, first compound 0.316 µM
[34] = second compound 10 µM, first compound 1 µM
[35] = second compound 10 µM, first compound 3.16 µM
[36] = second compound 10 µM, first compound 10 µM
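Further: spheroids exposed to compounds for seven days before readout.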

Compound: C#Cc1c(F)ccc2cc(O)cc(-c3ncc4c(N5CC6CCC(C5)N6)nc(OCC56CCCN5CC(F)C6)nc4c3F)c12 (centres undefined) + Cc1cccc(N(C)C(=O)C2C(O)CCN2c2nc(C)cc(C(F)(F)F)c2C#N)c1
- IC50 (second compound 0.0316 µM): > 10 µM
- IC50 (second compound 0.1 µM): > 10 µM
- IC50 (second compound 0.316 µM): > 10 µM
- IC50 (second compound 1 µM): > 10 µM
- IC50 (second compound 3.16 µM): > 10 µM
- IC50 (second compound 10 µM): > 10 µM
- viability, T/C [1]: 91.7%
- viability, T/C [2]: 105%
- viability, T/C [3]: 101%
- viability, T/C [4]: 89.2%
- viability, T/C [5]: 89.4%
- viability, T/C [6]: 82.8%
- viability, T/C [7]: 107%
- viability, T/C [8]: 97.8%
- viability, T/C [9]: 96.3%
- viability, T/C [10]: 76.8%
- viability, T/C [11]: 89.2%
- viability, T/C [12]: 74.2%
- viability, T/C [13]: 101%
- viability, T/C [14]: 110%
- viability, T/C [15]: 103%
- viability, T/C [16]: 80.3%
- viability, T/C [17]: 96.1%
- viability, T/C [18]: 91.4%
- viability, T/C [19]: 87%
- viability, T/C [20]: 87.1%
- viability, T/C [21]: 85.6%
- viability, T/C [22]: 87.5%
- viability, T/C [23]: 91%
- viability, T/C [24]: 87.6%
- viability, T/C [25]: 97.7%
- viability, T/C [26]: 90.2%
- viability, T/C [27]: 85.9%
- viability, T/C [28]: 90.8%
- viability, T/C [29]: 101%
- viability, T/C [30]: 84.2%
- viability, T/C [31]: 80.8%
- viability, T/C [32]: 86.9%
- viability, T/C [33]: 91%
- viability, T/C [34]: 75.1%
- viability, T/C [35]: 90.9%
- viability, T/C [36]: 81.3%

Compound: C=CC(=O)N1CCN(c2nc(=O)n(-c3c(C)ccnc3C(C)C)c3nc(-c4c(O)cccc4F)c(F)cc23)C(C)C1 (centres undefined) + Cc1cccc(N(C)C(=O)C2C(O)CCN2c2nc(C)cc(C(F)(F)F)c2C#N)c1
- IC50 (second compound 0.0316 µM): > 10 µM
- IC50 (second compound 0.1 µM): > 10 µM
- IC50 (second compound 0.316 µM): > 10 µM
- IC50 (second compound 1 µM): > 10 µM
- IC50 (second compound 3.16 µM): > 10 µM
- IC50 (second compound 10 µM): > 10 µM
- viability, T/C [1]: 101%
- viability, T/C [2]: 104%
- viability, T/C [3]: 94.8%
- viability, T/C [4]: 113%
- viability, T/C [5]: 97.2%
- viability, T/C [6]: 80.5%
- viability, T/C [7]: 114%
- viability, T/C [8]: 106%
- viability, T/C [9]: 73%
- viability, T/C [10]: 112%
- viability, T/C [11]: 98.9%
- viability, T/C [12]: 85.3%
- viability, T/C [13]: 91.1%
- viability, T/C [14]: 100%
- viability, T/C [15]: 109%
- viability, T/C [16]: 87.4%
- viability, T/C [17]: 84.4%
- viability, T/C [18]: 70%
- viability, T/C [19]: 95.3%
- viability, T/C [20]: 95.2%
- viability, T/C [21]: 89.3%
- viability, T/C [22]: 101%
- viability, T/C [23]: 113%
- viability, T/C [24]: 97.9%
- viability, T/C [25]: 76.5%
- viability, T/C [26]: 106%
- viability, T/C [27]: 109%
- viability, T/C [28]: 84%
- viability, T/C [29]: 99.8%
- viability, T/C [30]: 95.2%
- viability, T/C [31]: 88.7%
- viability, T/C [32]: 84.2%
- viability, T/C [33]: 101%
- viability, T/C [34]: 85.9%
- viability, T/C [35]: 91.8%
- viability, T/C [36]: 77.7%
